In ChEMBL document CHEMBL3112450, “Synthesis and in vitro antitumor evaluation of primary amine substituted quinazoline linked benzimidazole” (Bioorg Med Chem Lett, 2014):

How the values were obtained:
Format in all cases: functional
[1] = system: A549; experiment: Cytotoxicity against human A549 cells assessed as cell growth at 10^-5 M after 48 hrs by SRB assay; settings: A549, 48 h, read-out: Activity
[2] = system: MCF7; experiment: Cytotoxicity against human MCF7 cells assessed as cell growth at 10^-5 M after 48 hrs by SRB assay; settings: MCF7, 48 h, read-out: Activity
[3] = system: SF-268; experiment: Cytotoxicity against human SF268 cells assessed as cell growth at 10^-5 M after 48 hrs by SRB assay; settings: SF-268, 48 h, read-out: Activity
[4] = system: LOX IMVI; experiment: Cytotoxicity against human LOXIMVI cells assessed as cell growth at 10^-5 M after 48 hrs by SRB assay; settings: read-out: Activity
[5] = system: SK-MEL-2; experiment: Cytotoxicity against human SK-MEL-2 cells assessed as cell growth at 10^-5 M after 48 hrs by SRB assay; settings: SK-MEL-2, 48 h, read-out: Activity
[6] = system: 786-0; experiment: Cytotoxicity against human 786-0 cells assessed as cell growth at 10^-5 M after 48 hrs by SRB assay; settings: 786-0, 48 h, read-out: Activity
[7] = system: MDA-MB-231; experiment: Cytotoxicity against human MDA-MB-231 cells assessed as cell growth at 10^-5 M after 48 hrs by SRB assay; settings: MDA-MB-231, 48 h, read-out: Activity
[8] = system: MDA-MB-468; experiment: Cytotoxicity against human MDA-MB-468 cells assessed as cell growth at 10^-5 M after 48 hrs by SRB assay; settings: MDA-MB-468, 48 h, read-out: Activity
[9] = system: CCRF-CEM; experiment: Cytotoxicity against human CCRF-CEM cells assessed as cell growth at 10^-5 M after 48 hrs by SRB assay; settings: read-out: Activity
[10] = Cytotoxicity against human OVCAR5 cells assessed as cell growth at 10^-5 M after 48 hrs by SRB assay; settings: OVCAR-5, 48 h, read-out: Activity
[11] = system: SF-295; experiment: Cytotoxicity against human SF295 cells assessed as cell growth at 10^-5 M after 48 hrs by SRB assay; settings: SF-295, 48 h, read-out: Activity
[12] = system: TK-10; experiment: Cytotoxicity against human TK10 cells assessed as cell growth at 10^-5 M after 48 hrs by SRB assay; settings: TK-10, 48 h, read-out: Activity
[13] = system: SNB-75; experiment: Cytotoxicity against human SNB75 cells assessed as cell growth at 10^-5 M after 48 hrs by SRB assay; settings: SNB-75, 48 h, read-out: Activity
[14] = system: SNB-19; experiment: Cytotoxicity against human SNB19 cells assessed as cell growth at 10^-5 M after 48 hrs by SRB assay; settings: SNB-19, 48 h, read-out: Activity
[15] = Cytotoxicity against human UO31 cells assessed as cell growth at 10^-5 M after 48 hrs by SRB assay; settings: UO-31, 48 h, read-out: Activity
[16] = system: HOP-62; experiment: Cytotoxicity against human HOP62 cells assessed as cell growth at 10^-5 M after 48 hrs by SRB assay; settings: HOP-62, 48 h, read-out: Activity
[17] = system: NCI-H460; experiment: Cytotoxicity against human NCI-H460 cells assessed as cell growth at 10^-5 M after 48 hrs by SRB assay; settings: NCI-H460, 48 h, read-out: Activity
[18] = system: UACC-62; experiment: Cytotoxicity against human UACC62 cells assessed as cell growth at 10^-5 M after 48 hrs by SRB assay; settings: UACC-62, 48 h, read-out: Activity
[19] = system: MDA-MB-435; experiment: Cytotoxicity against human MDA-MB-435 cells assessed as cell growth at 10^-5 M after 48 hrs by SRB assay; settings: MDA-MB-435, 48 h, read-out: Activity
[20] = system: HCC 2998; experiment: Cytotoxicity against human HCC2998 cells assessed as cell growth at 10^-5 M after 48 hrs by SRB assay; settings: HCC 2998, 48 h, read-out: Activity
[21] = system: NCI-H226; experiment: Cytotoxicity against human NCI-H226 cells assessed as cell growth at 10^-5 M after 48 hrs by SRB assay; settings: NCI-H226, 48 h, read-out: Activity
[22] = system: SK-OV-3; experiment: Cytotoxicity against human SKOV3 cells assessed as cell growth at 10^-5 M after 48 hrs by SRB assay; settings: SK-OV-3, 48 h, read-out: Activity
[23] = system: MOLT-4; experiment: Cytotoxicity against human MOLT4 cells assessed as cell growth at 10^-5 M after 48 hrs by SRB assay; settings: MOLT-4, 48 h, read-out: Activity
[24] = system: K562; experiment: Cytotoxicity against human K562 cells assessed as cell growth at 10^-5 M after 48 hrs by SRB assay; settings: K562, 48 h, read-out: Activity
[25] = system: A498; experiment: Cytotoxicity against human A498 cells assessed as cell growth at 10^-5 M after 48 hrs by SRB assay; settings: A498, 48 h, read-out: Activity
[26] = system: NCI-H522; experiment: Cytotoxicity against human NCI-H522 cells assessed as cell growth at 10^-5 M after 48 hrs by SRB assay; settings: NCI-H522, 48 h, read-out: Activity
[27] = system: HCT-116; experiment: Cytotoxicity against human HCT116 cells assessed as cell growth at 10^-5 M after 48 hrs by SRB assay; settings: HCT-116, 48 h, read-out: Activity
[28] = system: ACHN; experiment: Cytotoxicity against human ACHN cells assessed as cell growth at 10^-5 M after 48 hrs by SRB assay; settings: read-out: Activity
[29] = system: SW-620; experiment: Cytotoxicity against human SW620 cells assessed as cell growth at 10^-5 M after 48 hrs by SRB assay; settings: SW-620, 48 h, read-out: Activity
[30] = system: BT-549; experiment: Cytotoxicity against human BT549 cells assessed as cell growth at 10^-5 M after 48 hrs by SRB assay; settings: BT-549, 48 h, read-out: Activity
[31] = Cytotoxicity against human NCI-ADR-RES cells assessed as cell growth at 10^-5 M after 48 hrs by SRB assay; settings: read-out: Activity
[32] = system: OVCAR-8; experiment: Cytotoxicity against human OVCAR8 cells assessed as cell growth at 10^-5 M after 48 hrs by SRB assay; settings: OVCAR-8, 48 h, read-out: Activity
[33] = system: COLO 205; experiment: Cytotoxicity against human COLO205 cells assessed as cell growth at 10^-5 M after 48 hrs by SRB assay; settings: COLO 205, 48 h, read-out: Activity
[34] = system: Malme-3M; experiment: Cytotoxicity against human MALME-3M cells assessed as cell growth at 10^-5 M after 48 hrs by SRB assay; settings: read-out: Activity
[35] = system: RPMI-8226; experiment: Cytotoxicity against human RPMI8226 cells assessed as cell growth at 10^-5 M after 48 hrs by SRB assay; settings: RPMI-8226, 48 h, read-out: Activity
[36] = system: T47D; experiment: Cytotoxicity against human T47D cells assessed as cell growth at 10^-5 M after 48 hrs by SRB assay; settings: read-out: Activity
[37] = system: HOP-92; experiment: Cytotoxicity against human HOP92 cells assessed as cell growth at 10^-5 M after 48 hrs by SRB assay; settings: HOP-92, 48 h, read-out: Activity

## C=CCn1c(C)nc2ccc(Nc3nc(Nc4ccc(F)cc4)nc4ccccc34)cc21
[1]
  growth at 10 µM: 26%
[2]
  growth at 10 µM: -63%
[3]
  growth at 10 µM: 47%
[4]
  growth at 10 µM: 24%
[5]
  growth at 10 µM: 4%
[6]
  growth at 10 µM: 43%
[7]
  growth at 10 µM: -8%
[8]
  growth at 10 µM: -90%
[9]
  growth at 10 µM: 2%
[10]
  growth at 10 µM: 59%
[11]
  growth at 10 µM: 31.4%
[12]
  growth at 10 µM: 40%
[13]
  growth at 10 µM: -68%
[14]
  growth at 10 µM: 48%
[15]
  growth at 10 µM: 33%
[16]
  growth at 10 µM: -70%
[17]
  growth at 10 µM: 11%
[18]
  growth at 10 µM: -69%
[19]
  growth at 10 µM: 24%
[20]
  growth at 10 µM: 47%
[21]
  growth at 10 µM: -62%
[22]
  growth at 10 µM: -74%
[23]
  growth at 10 µM: -18%
[24]
  growth at 10 µM: 3%
[25]
  growth at 10 µM: 42%
[26]
  growth at 10 µM: 8%
[27]
  growth at 10 µM: -11%
[28]
  growth at 10 µM: -54%
[29]
  growth at 10 µM: 1%
[30]
  growth at 10 µM: 21%
[31]
  growth at 10 µM: 20%
[32]
  growth at 10 µM: 4%
[33]
  growth at 10 µM: -91%
[34]
  growth at 10 µM: 63%
[35]
  growth at 10 µM: -43%
[36]
  growth at 10 µM: -47%
[37]
  growth at 10 µM: -8%

## C=CCn1c(C)nc2cc(Nc3nc(NCCO)nc4ccccc34)ccc21
[1]
  growth at 10 µM: 92.3%
[2]
  growth at 10 µM: 72.2%
[3]
  growth at 10 µM: 90.9%
[4]
  growth at 10 µM: 85.6%
[5]
  growth at 10 µM: 102%
[6]
  growth at 10 µM: 89.1%
[7]
  growth at 10 µM: 72.9%
[8]
  growth at 10 µM: 53.5%
[9]
  growth at 10 µM: 81.9%
[10]
  growth at 10 µM: 92.2%
[11]
  growth at 10 µM: 90.6%
[12]
  growth at 10 µM: 118%
[13]
  growth at 10 µM: 76.4%
[14]
  growth at 10 µM: 90.2%
[15]
  growth at 10 µM: 72.4%
[16]
  growth at 10 µM: 83.3%
[17]
  growth at 10 µM: 96%
[18]
  growth at 10 µM: 85.5%
[19]
  growth at 10 µM: 92.1%
[20]
  growth at 10 µM: 89%
[21]
  growth at 10 µM: 78.8%
[22]
  growth at 10 µM: 103%
[23]
  growth at 10 µM: 56.7%
[24]
  growth at 10 µM: 64.1%
[25]
  growth at 10 µM: 55.4%
[26]
  growth at 10 µM: 88.1%
[27]
  growth at 10 µM: 64%
[28]
  growth at 10 µM: 90.5%
[29]
  growth at 10 µM: 68.2%
[30]
  growth at 10 µM: 92.5%
[31]
  growth at 10 µM: 97.7%
[32]
  growth at 10 µM: 73.6%
[33]
  growth at 10 µM: 41.9%
[34]
  growth at 10 µM: 98.6%
[35]
  growth at 10 µM: 63.4%
[36]
  growth at 10 µM: 69%
[37]
  growth at 10 µM: 57.9%

## C=CCn1c(C)nc2cc(Nc3nc(Nc4ccc5nc(C)n(CC=C)c5c4)nc4ccccc34)ccc21
[1]
  growth at 10 µM: 96.3%
[2]
  growth at 10 µM: 92.4%
[3]
  growth at 10 µM: 113%
[4]
  growth at 10 µM: 93.3%
[5]
  growth at 10 µM: 121%
[6]
  growth at 10 µM: 113%
[7]
  growth at 10 µM: 90%
[8]
  growth at 10 µM: 118%
[9]
  growth at 10 µM: 94.8%
[10]
  growth at 10 µM: 107%
[12]
  growth at 10 µM: 130%
[13]
  growth at 10 µM: 90.8%
[14]
  growth at 10 µM: 100%
[15]
  growth at 10 µM: 89.3%
[16]
  growth at 10 µM: 101%
[17]
  growth at 10 µM: 117%
[18]
  growth at 10 µM: 95.8%
[19]
  growth at 10 µM: 108%
[20]
  growth at 10 µM: 104%
[21]
  growth at 10 µM: 99.8%
[22]
  growth at 10 µM: 104%
[23]
  growth at 10 µM: 101%
[24]
  growth at 10 µM: 102%
[25]
  growth at 10 µM: 125%
[26]
  growth at 10 µM: 99.1%
[27]
  growth at 10 µM: 98.9%
[28]
  growth at 10 µM: 104%
[29]
  growth at 10 µM: 106%
[30]
  growth at 10 µM: 106%
[31]
  growth at 10 µM: 101%
[32]
  growth at 10 µM: 98.9%
[33]
  growth at 10 µM: 108%
[34]
  growth at 10 µM: 94.5%
[35]
  growth at 10 µM: 98.8%
[36]
  growth at 10 µM: 96%
[37]
  growth at 10 µM: 79.8%
